The text below walks through data of patent publication US20210145801A1, “THERAPY FOR PROTEIN MISFOLDING DISEASE” (WREN THERAPEUTICS LIMITED, priority 2018, published 2021).

The target of the experiment is T1, Aβ42 (Homo sapiens, UniProt P05067).
T1 construct: made in house; host or cells: E. coli BL21 Gold (DE3)
T1 sequence (P05067 671-713): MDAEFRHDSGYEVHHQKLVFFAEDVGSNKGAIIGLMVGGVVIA
Put plainly: ThT kinetic assay of Aβ42 aggregation (unseeded). Format: biochemical. The note with it: 2 μM Aβ42; 5× drug:protein concentration. From the text: The recombinant Aβ(M1-42) peptide ([…]-SNKGAIIGLMVGGVVIA [SEQ ID NO: 1]), here called Aβ42, was expressed in the E. coli BL21 Gold (DE3) strain (Stratagene, Calif., U.S.A.) and purified as described previously with slight modifications. Briefly, the purification procedure involved sonication of E. coli cells, dissolution of inclusion bodies in 8 M urea, and ion exchange in batch mode on diethylaminoethyl cellulose resin and lyophylization. The lyophilized fractions were further purified using Superdex 75 HR 26/60 column (GE Healthcare, Buckinghamshire, U.K.) and eluates were analyzed using SDS-PAGE for the presence of the desired protein product. The fractions containing the recombinant protein were combined, frozen using liquid nitrogen, and lyophilized again.
Except for Netoglitazone, which was custom synthesised by GVK BIO, all small molecules were purchased with a purity greater than 99%. Small molecules were first solubilized in 100% DMSO to a concentration of 5 mM, and then diluted in the peptide solution to reach a final DMSO concentration of maximum 1-3%. We verified that the addition of DMSO in the reaction mixture has no effect on Aβ42 aggregation.
Solutions of monomeric peptides were prepared by dissolving the lyophilized Aβ42 peptide in 6 M GuHCl. Monomeric forms were purified from potential oligomeric species and salt using a Superdex 75 10/300 GL column (GE Healthcare) at a flowrate of 0.5 mL/min, and were eluted in 20 mM sodium phosphate buffer, pH 8 supplemented with 200 μM EDTA and 0.02% NaN3. The centre of the peak was collected, and the peptide concentration was determined from the absorbance of the integrated peak area using ε280=1490 L mol^−1 cm^−1. The obtained monomer was diluted with buffer to the desired concentration and supplemented with 20 μM Thioflavin T (ThT) from a 1 mM stock. All samples were prepared in low binding Eppendorf tubes on ice using careful pipetting to avoid introduction of air bubbles. Each sample was then pipetted into multiple wells of a 96-well half-area, low-binding, clear bottom and PEG coating plate (Corning 3881), 80 μL per well. Aβ42 kinetics have been performed in the absence or the presence of Netoglitazone, Mitoglitazone, Rosiglotazone, Rivoglitazone, Pioglitazone, Ciglitazone, Englitazone, Darglitazone, Troglitazone and Balaglitazone.
The time evolution of the total fibril mass concentration is described as a function only of the initial conditions and the rate constants of the system by the integrated rate law given by Eq. (54) in Cohen et al., J Chem Phys 135, 065106, 2011.
These are related to the rate of formation of new aggregates through primary pathways λ=√{square root over (2k+knm(0)^n^c)} and through secondary pathways κ=√{square root over (2k+k2m(0)^n^2^+1)}, where the initial concentration of soluble monomers is denoted by m(0), nc and n2 describe the dependencies of the primary and secondary pathways on the monomer concentration (nc=n2=2 for Aβ42), and kn, k+ and k2 are the rate constants of the primary nucleation, elongation and secondary nucleation, respectively (Cohen et al., Proc Natl Acad Sci USA, 110(24), 9758-63, 2013).
Inhibitors can interfere with the aggregation process by inhibiting one or more of the individual microscopic steps.
As for `Cn1c(COc2ccc(CC3SC(=O)NC3=O)cc2)nc2ccccc2c1=O` (centres unmarked) [Balaglitazone], the “Delay of Aβ42 aggregation” value is “little to no delay of Aβ42 aggregation was observed”. For `Cc1oc(-c2ccccc2)nc1CCC(=O)c1ccc(CC2SC(=O)NC2=O)cc1` (centres unmarked) [Darglitazone], the “Delay of Aβ42 aggregation” value is “observed to delay Aβ42 aggregation”. Regarding `O=C1NC(=O)C(Cc2ccc3c(c2)CC[C@H](Cc2ccccc2)O3)S1` (some centres unmarked) [Englitazone], the “Delay of Aβ42 aggregation” value was “significantly delayed aggregation”. The value for `CCc1ccc(C(=O)COc2ccc(CC3SC(=O)NC3=O)cc2)nc1` (centres unmarked) [Mitoglitazone] was “little to no delay of Aβ42 aggregation was observed”; that for `COc1ccc2nc(COc3ccc(CC4SC(=O)NC4=O)cc3)n(C)c2c1` (centres unmarked) [Rivoglitazone] was “little to no delay of Aβ42 aggregation was observed”.
